Results reported in paper PMC12892976, “Alkylation-based optimization of antifungal FPPS inhibitors yields a potent, broad-spectrum lipophilic zoledronate derivative” (mBio, 2025).
Read-outs that look alike come from different tables or passages of the source.

What was measured:
eight fungal species [1] = assay: MIC/MFC summary across the eight fungal species of Table 1; type: cell-based
Experimental: The antifungal activity of these compounds was evaluated according to CLSI guidelines ([16]).

Trichophyton rubrum [2] = assay: checkerboard drug interaction (FICI, MICc);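 also: simplified diagonal checkerboard screen pairing azole antifungals with FPPS inhibitors, FICI calculated under the Loewe additivity model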; type: cell-based; conditions: T. rubrum
Experimental: (§1) Drug interactions between antifungals and FPPS inhibitors were investigated using a simplified checkerboard diagonal screening method ([45]). […] FICIs were determined according to the Loewe additivity model ([17]).

Aspergillus fumigatus [3] = assay: checkerboard drug interaction (FICI, MICc); type: cell-based;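 also: simplified diagonal checkerboard screen pairing antifungals with FPPS inhibitors against Aspergillus fumigatus, with FICI calculated under the Loewe additivity model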
Experimental: as §1

Saccharomyces cerevisiae [4] = assay: checkerboard drug interaction (FICI, MICc); type: cell-based; design: INH MICc / INH MICc (ITR:INH) / INH MICc (KET:INH) / INH MICc (FLC:INH): unit not given beside the values;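 also: simplified diagonal checkerboard screen pairing antifungals with FPPS inhibitors, FICI calculated under the Loewe additivity model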
Aspergillus flavus [5] = assay: checkerboard drug interaction (FICI, MICc);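 also: simplified diagonal checkerboard screen pairing azole antifungals with FPPS inhibitors, FICI calculated under the Loewe additivity model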; type: cell-based; design: INH MICc (KET:INH) / INH MICc (FLC:INH): unit not given beside the values; conditions: A. flavus
Saccharomyces cerevisiae [6] = assay: MIC/MFC broth microdilution (CLSI); type: cell-based; conditions: Saccharomyces cerevisiae S288c
Experimental: (§2) Antifungal susceptibility was determined by broth microdilution according to the CLSI guidelines described in M27-Ed4 ([16]). […] MFC was determined by back-plating drug-treated cultures from MIC broths onto SDA plates. The MFC was defined as the lowest concentration from which no colonies could be cultured.

Aspergillus fumigatus [7] = assay: MIC/MFC broth microdilution (CLSI); conditions: ATCC204305
Experimental: as §2

Aspergillus flavus [8] = assay: MIC/MFC broth microdilution (CLSI); conditions: ATCC204304
Experimental: as §2

eight fungal species [9] = assay: checkerboard interaction with azoles, summary across the eight species; type: cell-based; conditions: geometric mean MIC in combination with azoles
Source text: Synergy between lipophilic FPPS inhibitors and azole antifungals was investigated by determining the fractional inhibitory concentration index (FICI) (Fig. 2; Table S1 Fig. S1) ([17]). […]. Derivatives PLA9 and 11, and PDA9, 11, and 12 antagonized azoles in C. albicans, C. neoformans, and C. deuterogattii, yet were largely synergistic in C. glabrata and S. cerevisiae. […].

[10] = tested on: Cryptococcus deuterogattii; assay: checkerboard drug interaction (FICI, MICc);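 as to all read-outs here: simplified diagonal checkerboard screen pairing antifungal drugs with FPPS inhibitors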; type: cell-based; conditions: C. deuterogattii; for INH FD (MIC-MICc fold decrease): fold decrease of inhibitor MIC
Experimental: as §1

HEK-293T cells = assay: MTT reduction cytotoxicity assay; type: cell-based; conditions: Homo sapiens, HEK-293T, 72 h, HEK-293T, MTT, 72 h; read-out: HEK IC50
Cryptococcus neoformans [11] = assay: checkerboard drug interaction (FICI, MICc);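 as to all read-outs here: antifungal plus FPPS inhibitor pairs tested against Cryptococcus neoformans by simplified diagonal checkerboard screening, FICI computed under the Loewe additivity model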; type: cell-based; conditions: C. neoformans; for INH FD (MIC-MICc fold decrease): fold decrease of inhibitor MIC
Experimental: as §1

Candida albicans [12] = assay: MIC/MFC broth microdilution (CLSI); type: cell-based; conditions: Candida albicans SC5314
Experimental: as §2

Candida glabrata [13] = assay: checkerboard drug interaction (FICI, MICc);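 as to all read-outs here: simplified diagonal checkerboard screen pairing antifungals with FPPS inhibitors, FICI calculated under the Loewe additivity model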; type: cell-based; conditions: C. glabrata; for INH FD (MIC-MICc fold decrease): fold decrease of inhibitor MIC
Experimental: as §1

Trichophyton rubrum [14] = assay: MIC/MFC broth microdilution (CLSI); conditions: Trichophyton rubrum
Experimental: as §2

[15] = tested on: Cryptococcus deuterogattii; assay: MIC/MFC broth microdilution (CLSI); conditions: Cryptococcus deuterogattii;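 also: broth microdilution per CLSI M27-Ed4. MFC is the lowest concentration yielding no colonies when MIC broths are subcultured onto SDA plates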
Experimental: as §2

Cryptococcus neoformans [16] = assay: MIC/MFC broth microdilution (CLSI); conditions: Cryptococcus neoformans;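 also: susceptibility testing followed the CLSI M27-Ed4 broth microdilution document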
Experimental: as §2

Candida glabrata [17] = assay: MIC/MFC broth microdilution (CLSI); conditions: Nakaseomyces glabratus, CBS138;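 also: broth microdilution following CLSI M27-Ed4, MFC taken as the lowest drug level yielding no growth once MIC wells were subcultured on SDA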
Experimental: as §2

Candida albicans [18] = assay: checkerboard drug interaction (FICI, MICc);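 as to all read-outs here: antifungal plus FPPS inhibitor combinations on Candida albicans tested by a simplified diagonal checkerboard screen, with FICI calculated under the Loewe additivity model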; type: cell-based; conditions: C. albicans; for INH FD (MIC-MICc fold decrease): fold decrease of inhibitor MIC
Experimental: as §1

[19] = Fractional Inhibitory Concentration Index, fluconazole + inhibitor
[20] = Fractional Inhibitory Concentration Index, itraconazole + inhibitor
[21] = Fractional Inhibitory Concentration Index, ketoconazole + inhibitor
[22] = MIC of the inhibitor in combination with fluconazole
[23] = MIC of the inhibitor in combination with itraconazole
[24] = MIC of the inhibitor in combination with ketoconazole
[25] = MIC-MICc fold decrease of fluconazole, negative = increase
[26] = MIC-MICc fold decrease of itraconazole, negative = increase
[27] = MIC-MICc fold decrease of ketoconazole, negative = increase
[28] = MIC-MICc fold decrease of the inhibitor, with fluconazole
[29] = MIC-MICc fold decrease of the inhibitor, with itraconazole
[30] = MIC-MICc fold decrease of the inhibitor, with ketoconazole
[31] = FLC:INH combination, MIC of the inhibitor in combination with FLC
[32] = FLC:INH combination, fold decrease of FLC MIC
[33] = ITR:INH combination, MIC of the inhibitor in combination with ITR
[34] = ITR:INH combination, fold decrease of ITR MIC
[35] = KET:INH combination, MIC of the inhibitor in combination with KET
[36] = KET:INH combination, fold decrease of KET MIC

CCCCCCCCCCN1CCC[C@H]1C(=O)N[C@H](CC(=O)OC)C(=O)OC [dmPDA10]
2.13: FICI (FLC:INH) (Aspergillus fumigatus [3]; [19])
0.63: FICI (ITR:INH) (Aspergillus fumigatus [3]; [20]) | FICI (KET:INH) (Aspergillus flavus [5]; [21])
2: FLC FD (FLC:INH) (Trichophyton rubrum [2]; [25]) | KET FD (KET:INH) (Trichophyton rubrum [2]; [27]) | INH MICc (ITR:INH) (Aspergillus fumigatus [3]; [23]) | ITR FD (ITR:INH) (Aspergillus fumigatus [3]; [26]) | KET FD (KET:INH) (Aspergillus flavus [5]; [27]) | INH FD (FLC:INH) (Aspergillus flavus [5]; [28]) | INH FD (ITR:INH) (Aspergillus flavus [5]; [29]) | ITR FD (MIC-MICc fold decrease) [10, 34] | INH FD (MIC-MICc fold decrease) ([10]; KET:INH combination) | INH FD (MIC-MICc fold decrease) (Cryptococcus neoformans [11]; FLC:INH combination) | INH FD (MIC-MICc fold decrease) (Cryptococcus neoformans [11]; ITR:INH combination) | INH FD (MIC-MICc fold decrease) (Cryptococcus neoformans [11]; KET:INH combination) | INH FD (MIC-MICc fold decrease) (Candida glabrata [13]; ITR:INH combination) | INH FD (MIC-MICc fold decrease) (Candida albicans [18]; FLC:INH combination) | ITR FD (MIC-MICc fold decrease) (Candida albicans [18]; [34]) | KET FD (MIC-MICc fold decrease) (Candida albicans [18]; [36])
3: FICI (ITR:INH) (Saccharomyces cerevisiae [4]; [20]) | FICI (Candida glabrata [13]; ITR:INH combination)
8 µg/mL: MIC (Trichophyton rubrum [14])
14.7: GM fungal MICc (eight fungal species [9])
2.25: FICI (KET:INH) (Aspergillus fumigatus [3]; [21])
-2: INH FD (FLC:INH) (Aspergillus fumigatus [3]; [28]) | INH FD (KET:INH) (Aspergillus fumigatus [3]; [30]) | FLC FD (FLC:INH) (Saccharomyces cerevisiae [4]; [25]) | ITR FD (ITR:INH) (Saccharomyces cerevisiae [4]; [26]) | INH FD (FLC:INH) (Saccharomyces cerevisiae [4]; [28]) | KET FD (MIC-MICc fold decrease) (Candida glabrata [13]; [36])
< -4: INH FD (FLC:INH) (Trichophyton rubrum [2]; [28]) | INH FD (ITR:INH) (Trichophyton rubrum [2]; [29]) | INH FD (KET:INH) (Trichophyton rubrum [2]; [30])
64 µg/mL: MFC (Aspergillus flavus [8]) | MIC (Aspergillus flavus [8]) | MFC [15]
≥4: FICI (FLC:INH) (Trichophyton rubrum [2]; [19]) | FICI (ITR:INH) (Trichophyton rubrum [2]; [20]) | FICI (KET:INH) (Trichophyton rubrum [2]; [21]) | FICI (FLC:INH) (Saccharomyces cerevisiae [4]; [19]) | FICI (Candida glabrata [13]; FLC:INH combination) | FICI (Candida glabrata [13]; KET:INH combination)
1.5: FICI (ITR:INH) (Aspergillus flavus [5]; [20]) | FICI ([10]; ITR:INH combination) | FICI (Candida albicans [18]; FLC:INH combination)
45.3 µg/mL: Geometric mean MFC (eight fungal species [1]; across eight species) | MFC (eight fungal species [1]; across eight species, read-out: Geometric mean MFC)
1.25: FICI ([10]; FLC:INH combination)
64: INH MICc (FLC:INH) (Trichophyton rubrum [2]; [22]) | INH MICc (ITR:INH) (Trichophyton rubrum [2]; [23]) | INH MICc (KET:INH) (Trichophyton rubrum [2]; [24])
1.13: FICI (KET:INH) (Saccharomyces cerevisiae [4]; [21])
16: INH MICc (ITR:INH) (Saccharomyces cerevisiae [4]; [23]) | INH MICc (KET:INH) (Saccharomyces cerevisiae [4]; [24]) | INH MICc [10, 31] | INH MICc [10, 33] | INH MICc (Candida glabrata [13]; [31]) | INH MICc (Candida glabrata [13]; [35])
0.75: FICI (FLC:INH) (Aspergillus flavus [5]; [19]) | FICI (Cryptococcus neoformans [11]; FLC:INH combination) | FICI (Cryptococcus neoformans [11]; ITR:INH combination) | FICI (Cryptococcus neoformans [11]; KET:INH combination) | FICI (Candida albicans [18]; ITR:INH combination) | FICI (Candida albicans [18]; KET:INH combination)
8: FLC FD (FLC:INH) (Aspergillus fumigatus [3]; [25]) | INH FD (ITR:INH) (Aspergillus fumigatus [3]; [29]) | KET FD (KET:INH) (Saccharomyces cerevisiae [4]; [27]) | INH MICc (KET:INH) (Aspergillus flavus [5]; [24]) | INH FD (KET:INH) (Aspergillus flavus [5]; [30]) | INH MICc [10, 35] | INH MICc (Cryptococcus neoformans [11]; [31]) | INH MICc (Cryptococcus neoformans [11]; [33]) | INH MICc (Cryptococcus neoformans [11]; [35]) | INH MICc (Candida glabrata [13]; [33]) | INH MICc (Candida albicans [18]; [31])
4: ITR FD (ITR:INH) (Trichophyton rubrum [2]; [26]) | KET FD (KET:INH) (Aspergillus fumigatus [3]; [27]) | FLC FD (FLC:INH) (Aspergillus flavus [5]; [25]) | FLC FD (MIC-MICc fold decrease) [10, 32] | FLC FD (MIC-MICc fold decrease) (Cryptococcus neoformans [11]; [32]) | ITR FD (MIC-MICc fold decrease) (Cryptococcus neoformans [11]; [34]) | KET FD (MIC-MICc fold decrease) (Cryptococcus neoformans [11]; [36]) | INH MICc (Candida albicans [18]; [33]) | INH FD (MIC-MICc fold decrease) (Candida albicans [18]; ITR:INH combination) | INH MICc (Candida albicans [18]; [35]) | INH FD (MIC-MICc fold decrease) (Candida albicans [18]; KET:INH combination)
32: INH MICc (FLC:INH) (Aspergillus fumigatus [3]; [22]) | INH MICc (KET:INH) (Aspergillus fumigatus [3]; [24]) | INH MICc (FLC:INH) (Saccharomyces cerevisiae [4]; [22]) | INH MICc (FLC:INH) (Aspergillus flavus [5]; [22]) | INH MICc (ITR:INH) (Aspergillus flavus [5]; [23]) | KET FD (MIC-MICc fold decrease) [10, 36]
> 128 µg/mL: MFC (Trichophyton rubrum [14])
16 µg/mL: MFC (Saccharomyces cerevisiae [6]) | MIC (Saccharomyces cerevisiae [6]) | MIC (Candida albicans [12]) | MIC [15] | MIC (Cryptococcus neoformans [16])
0.53: FICI ([10]; KET:INH combination)
1.84 µg/mL: IC50 (HEK-293T cells)
32 µg/mL: MFC (Aspergillus fumigatus [7]) | MIC (Aspergillus fumigatus [7]) | MFC (Candida albicans [12]) | MFC (Cryptococcus neoformans [16]) | MFC (Candida glabrata [17]) | MIC (Candida glabrata [17])
20.7 µg/mL: MIC (eight fungal species [1]; geometric mean across eight species, read-out: GM fungal MIC) | MIC (eight fungal species [1]; read-out: Geometric mean MIC)
1: INH FD (ITR:INH) (Saccharomyces cerevisiae [4]; [29]) | INH FD (KET:INH) (Saccharomyces cerevisiae [4]; [30]) | ITR FD (ITR:INH) (Aspergillus flavus [5]; [26]) | INH FD (MIC-MICc fold decrease) ([10]; FLC:INH combination) | INH FD (MIC-MICc fold decrease) ([10]; ITR:INH combination) | FLC FD (MIC-MICc fold decrease) (Candida glabrata [13]; [32]) | INH FD (MIC-MICc fold decrease) (Candida glabrata [13]; FLC:INH combination) | ITR FD (MIC-MICc fold decrease) (Candida glabrata [13]; [34]) | INH FD (MIC-MICc fold decrease) (Candida glabrata [13]; KET:INH combination) | FLC FD (MIC-MICc fold decrease) (Candida albicans [18]; [32])
